# Source: publication PMC10318527, “Utilization of dietary mixed-linkage β-glucans by the Firmicute Blautia producta” (The Journal of Biological Chemistry, 2023)
# “Also recorded” adds a separate entry of the source.
# How the values were obtained:
# [1] = test system: BPGH16 mutant L358A; test: Kinetics of BPGH16 mutant L358A (DNS assay); format: biochemical, Blautia producta ATCC 27340
# Description: (§1) The residues R331, L358, E379, D381, E384, W362, and H398 of BpGH16MLG were mutated to Ala by the Q5Site-Directed Mutagenesis Kit (New England Biolabs, UK, catalogue no. E0554S). Wild-type plasmid BpGH16-pET28a(+) was used as a template, and mutagenic forward and reverse primers were developed using NEBaseChanger with subtle modifications (Table S4). A 25 μl PCR cocktail was prepared for mutating each residue. The final concentration of Q5 Hot Start High-Fidelity 2X Master Mix was 1X, each primer was at 0.5 μM, the amount of used template was 20 ng, and the rest of the volume was made up of nuclease-free water. PCR was executed using the following conditions-initial denaturation was performed at 98 °C for 1 min, for each cycle-denaturation, annealing, and extension (72 °C) were set for 10 s, 20 s, and 7 min, respectively. […] The mutant protein was then expressed as per the protocol mentioned earlier, and kinetics were performed with barley β-glucan.
# (§2) Reactions were performed in 100 μl volume mixture using recombinant enzyme (final concentration at 0.1 mg/ml) in 50 mM sodium phosphate buffer (pH 5.7) at 37 °C for 1 h of incubation. […] Enzymatic assays were determined with 3,5- dinitrosalicylic acid (DNS) assay ([85]). […] Consequently, recorded the developed color spectrophotometrically at 575 nm ([85]). […]
# [2] = test system: BPGH16 mutant E384A; test: Kinetics of BPGH16 mutant E384A (DNS assay); format: biochemical, Blautia producta ATCC 27340
# Description: as §1, §2
# [3] = test system: BpGH16MLG; test: Initial screening of BpGH16MLG against substrates (TLC); format: biochemical, Blautia producta ATCC 27340; details: pH 5.7, 37 °C, 2 h
# Description: After the appropriate incubation time, the reaction was terminated by boiling (5 min), and generated oligosaccharides were analyzed by thin layer chromatography (TLC). Typically, 1 μl of the reaction mixture was used for TLC analysis. TLC analysis was performed on Silica Gel 60 F254 (Merck), and produced sugars were visualized by spraying TLC with 5% H2SO4 in ethanol, followed by heating.
# [4] = test system: B. producta ΔSBP; test: Growth of B. producta ΔSBP mutant on barley β-glucan; format: cell-based, Blautia producta; details: minimal medium containing 1% barley β-glucan
# Description: The pBS423-ΔrepA- Δsbp was constructed by inserting 905 bp 5' and 1151 bp 3' flanking regions but lacking 1.2 kb core region of BpSBPMLG. It was inserted between Pst1 sites of the vector. GenScript Biotech (Singapore) PTE LTD carried out synthesis of the 2.2 kb flanking region and insertion into pBS423-ΔrepA. Competent cells of B. producta were prepared after inoculating 1 % primary culture into 300 ml GAM containing glucose (0.2%), sucrose (0.5 M), and glycine (1%). It was incubated until A600 reached 0.5-0.7 at 37 °C under anaerobic conditions. Afterward, cultures were transferred into 50 ml centrifuge tubes and centrifuged at 3000 × g for 20 min. The supernatant was discarded, and pellets were washed three times with washing solution (0.5 M sucrose and 10% glycerol) and stored at -80°C in aliquots of 50 µl.
# The first cross-over event for knocking out was achieved by integrating 0.2 to 1 µg pBS423-ΔrepA- Δsbp in 50 µl competent cells of B. producta through electroporation using a condition of 25 µF, 2.0 kV, and 200 Ω. Gene Pulser Xcell (Bio-Rad Laboratories, Hercules, CA, USA) was used for this purpose. The treated cells were instantly mixed with 1 ml anaerobically pre-incubated GAM medium containing 0.2 % glucose, 0.5 M sucrose, 1 % glycine, 20 mM MgCl2.6H2O, and 2 mM CaCl2. […]
substance,measurement,setting,value
Barley β-glucan,kcat,[1],0 s⁻¹
same,kcat,[2],0 s⁻¹
same,activity of BpGH16MLG on substrate (initial screening),[3],did cleave
same,growth of B. producta ΔSBP compared to wild-type strain,[4],significant retardation in growth; also recorded: retarded growth
